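Each compound was tested at five concentrations against cells in 96-well plates for 48 hours. Definition used: TGI = concentration required for complete inhibition of growth.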
Legend:
Assay in all cases: NCI tumour cell line growth inhibition, 48 h
A498 renal = test system: A498 renal
BT-549 breast = test system: BT-549 breast
DU-145 prostate = test system: DU-145 prostate
HS 578T breast = test system: HS 578T breast
KM12 colon = test system: KM12 colon
MALME-3M melanoma = test system: MALME-3M melanoma
MDA-N = test system: MDA-N
OVCAR-4 ovarian = test system: OVCAR-4 ovarian
SF-295 CNS = test system: SF-295 CNS
SN12C renal = test system: SN12C renal
SNB-19 CNS = test system: SNB-19 CNS
TK-10 renal = test system: TK-10 renal

| SMILES | TGI (A498 renal) | TGI (BT-549 breast) | TGI (DU-145 prostate) | TGI (HS 578T breast) | TGI (KM12 colon) | TGI (MALME-3M melanoma) | TGI (MDA-N) | TGI (OVCAR-4 ovarian) | TGI (SF-295 CNS) | TGI (SN12C renal) | TGI (SNB-19 CNS) | TGI (TK-10 renal) |
| --- | --- | --- | --- | --- | --- | --- | --- | --- | --- | --- | --- | --- |
| CCOC(=O)c1cc(C2(O)CCN(Cc3ccccc3)C2=O)c(-c2cc(C)no2)[nH]1 (configuration not stated) | > 100 µM | > 100 µM | > 100 µM | > 100 µM | > 100 µM | > 100 µM | > 100 µM | > 100 µM | 78.4 µM | > 100 µM | > 100 µM | > 100 µM |
| Cc1ccc(-c2cc(N)n(-c3nc4c([nH]3)c(=O)n(C)c(=O)n4C)n2)cc1 | 21 µM | 32.9 µM | 20.4 µM | > 100 µM | 38.9 µM | 16 µM | > 100 µM | > 100 µM | 24.9 µM | 27.2 µM | > 100 µM | 26.4 µM |
| Nc1nc2ncc(SCc3ccc(C(=O)NC(CCC(=O)O)C(=O)O)cc3)cc2c(=O)[nH]1 (configuration not stated) | > 100 µM | > 100 µM | > 100 µM | > 100 µM | > 100 µM | > 100 µM | > 100 µM | > 100 µM | > 100 µM | > 100 µM | > 100 µM | > 100 µM |
| CCOC(=O)c1cc2c([N+](=O)[O-])c(NC(C)=O)ccc2s1 | > 100 µM | > 100 µM | > 100 µM | > 100 µM | > 100 µM | > 100 µM | > 100 µM | > 100 µM | > 100 µM | > 100 µM | > 100 µM | > 100 µM |
| COC(=O)C1(Cc2ccccc2)Cc2cc3c(cc2C1=O)CCC3 (configuration not stated) | 82 µM | > 100 µM | > 100 µM | > 100 µM | 81.6 µM | 56.6 µM | 37.3 µM | > 100 µM | > 100 µM | > 100 µM | > 100 µM | > 100 µM |
| C/C(=N\NC(=S)NC(C)C)c1nc2ncccc2[nH]1 | > 100 µM | 58.9 µM | > 100 µM | 69.7 µM | > 100 µM | > 100 µM | > 100 µM | > 100 µM | 35.6 µM | > 100 µM | > 91.6 µM | 73.8 µM |
| CC[C@@H]1CC[C@@H]2[C@H](CC[C@]3(C)[C@@H](O)CC[C@@H]23)[C@H]1C(=O)O | > 100 µM | > 100 µM | > 100 µM | > 100 µM | > 100 µM | > 100 µM | > 100 µM | > 100 µM | > 100 µM | > 100 µM | > 100 µM | > 100 µM |
| CCN(CC)CCOC(c1cc(OC)ccc1OC)c1ccc2n1-c1ccccc1OC2 (configuration not stated) | 24.1 µM | 25.2 µM | 60.7 µM | 30.9 µM | 34.2 µM | 35.8 µM | 26.5 µM | 31.9 µM | 23.9 µM | 7.69 µM | 31.2 µM | 25.4 µM |
| CCOC(=O)c1sc2nc(SC)nc3c2c1N=CN3c1ccc(Br)cc1 | > 100 µM | > 100 µM | > 100 µM | > 100 µM | > 100 µM | > 100 µM | > 100 µM | > 100 µM | > 100 µM | > 100 µM | > 100 µM | > 100 µM |
| COc1ccc2c(c1)c1c(n2CCN2CCOCC2)-c2ccccc2CC1 | > 100 µM | > 100 µM | > 100 µM | 42.8 µM | > 100 µM | 66.6 µM | > 100 µM | > 100 µM | > 100 µM | 69.8 µM | – | > 100 µM |
| Cc1ccc(S(=O)(=O)N2CCN3C(=O)c4ccccc4C32c2ccc(F)cc2)cc1 (configuration not stated) | 63.5 µM | > 100 µM | > 100 µM | > 100 µM | > 100 µM | > 100 µM | > 100 µM | > 100 µM | > 100 µM | > 100 µM | > 100 µM | > 100 µM |
| Cc1ccc2c(c1C)CC1(Cc3c(ccc4c3CCC4)C1=O)C2=O (configuration not stated) | > 100 µM | > 100 µM | > 100 µM | > 100 µM | > 100 µM | > 100 µM | > 100 µM | > 100 µM | > 100 µM | > 100 µM | > 100 µM | > 100 µM |
| Cc1cc(-c2nc3ccccc3s2)ccc1NS(=O)(=O)O | > 100 µM | > 100 µM | > 100 µM | > 59.5 µM | > 55.4 µM | > 100 µM | > 100 µM | > 100 µM | > 100 µM | > 100 µM | > 100 µM | > 100 µM |
| Cc1c(Cl)ccc2c(=O)c3cccc(CC(=O)O)c3oc12 | > 100 µM | > 100 µM | > 100 µM | > 100 µM | > 100 µM | > 100 µM | > 100 µM | > 100 µM | > 100 µM | > 100 µM | > 100 µM | > 100 µM |
| Clc1nc(Cl)nc(NC23CC4CC(CC(C4)C2)C3)n1 | > 58.3 µM | 35.6 µM | 31.3 µM | 28.9 µM | 32.2 µM | 30.5 µM | 35.3 µM | 39.2 µM | 45.9 µM | 35.2 µM | 40.3 µM | 32.6 µM |
| CCOC(=O)c1cc(=C2\CCN(CC(C)CC)C2=S)/c(=C(/O)CC)[nH]1 (configuration not stated) | 29 µM | 35.4 µM | 30.2 µM | 59.6 µM | 32 µM | 23.3 µM | 28.2 µM | 30.9 µM | 34.4 µM | 39.2 µM | 34.7 µM | 28.6 µM |
| Nc1nc(Cl)cc(NCC2(CO)CC(CCc3ccccc3)C2)n1 (configuration not stated) | > 100 µM | > 100 µM | > 100 µM | > 100 µM | > 100 µM | > 100 µM | > 100 µM | > 100 µM | > 100 µM | > 100 µM | > 100 µM | > 100 µM |
| CCCCN(CC)c1nc(C)nc2c1c(C)c(C)n2-c1c(C)cc(C)cc1C | 31.3 µM | 34.3 µM | 30.2 µM | 38 µM | 36.3 µM | 29.6 µM | 38.6 µM | 37.9 µM | 28 µM | 40.9 µM | 33.3 µM | 31.1 µM |
| CCCCc1c(O)nc(Nc2nc3ccccc3[nH]2)[nH]c1=O | > 100 µM | > 100 µM | > 100 µM | 88 µM | > 100 µM | > 100 µM | > 100 µM | > 100 µM | > 100 µM | > 100 µM | > 100 µM | > 100 µM |

Reference: PubChem BioAssay (NCI)
